According to ChEMBL document CHEMBL1138462 (J Med Chem, 2009):
pKi: −log10 of the molar value. Activity calls are given as the source filed them. The rule behind the calls is not given here.

What was measured:
[1] = Solubility in sodium taurocholate/phosphatidyl choline salt medium; format: physicochemical
Rattus norvegicus [2] = species: Rattus norvegicus; assay: Anorectic activity in acute food intake rat model assessed as increase in energy expenditure; format: functional, organism-based
[3] = Bioavailability in rat at 1 mg/kg, iv and 5 mg/kg, po; format: ADME, organism-based; conditions: in vivo
Mus musculus [4] = assay: Inhibition of CP-55940-induced hypothermia in ICR mouse at 1 mg/kg, sc administered 15 mins before CP-55940 challenge measured after 65 mins; format: functional, organism-based; parameters: dose 1 mg/kg
Rattus norvegicus [5] = species: Rattus norvegicus; assay: Anorectic activity in acute food intake rat model assessed as increase in fat oxidation; format: functional, organism-based
Rattus norvegicus [6] = species: Rattus norvegicus; assay: Anorectic activity in acute food intake rat model assessed as decrease in food intake; format: functional, organism-based
[7] = Aqueous solubility of the compound; format: physicochemical; conditions: buffer
Mus musculus [8] = assay: Inhibition of CP-55940-induced catalepsy in ICR mouse at 1 mg/kg, sc administered 15 mins before CP-55940 challenge measured after 90 mins; format: functional, organism-based; parameters: dose 1 mg/kg
Mus musculus [9] = assay: Inhibition of CP-55940-induced analgesia in ICR mouse at 1 mg/kg, sc administered 15 mins before CP-55940 challenge measured after 45 mins by hot plate method; format: functional, organism-based; parameters: dose 1 mg/kg
Cannabinoid receptor 2 = Cannabinoid receptor 2 (Homo sapiens, UniProt P34972); assay: Binding affinity to CB2 receptor
Cannabinoid receptor 2, sequence (P34972 whole entry): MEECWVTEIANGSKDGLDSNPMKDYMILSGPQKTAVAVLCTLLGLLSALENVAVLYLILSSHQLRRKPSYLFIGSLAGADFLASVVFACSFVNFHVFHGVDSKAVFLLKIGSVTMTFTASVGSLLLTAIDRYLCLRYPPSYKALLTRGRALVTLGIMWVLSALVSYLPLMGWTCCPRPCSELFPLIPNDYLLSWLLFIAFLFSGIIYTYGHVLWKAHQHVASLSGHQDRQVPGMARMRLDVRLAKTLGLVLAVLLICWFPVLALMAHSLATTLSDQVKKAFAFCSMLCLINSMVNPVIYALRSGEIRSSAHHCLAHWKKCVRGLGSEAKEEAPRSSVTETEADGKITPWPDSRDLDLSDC

[10] = Volume of distribution at steady state in rat at 1 mg/kg, iv and 5 mg/kg, po; format: ADME, organism-based; conditions: in vivo, read-out: Vdss
[11] = Oral bioavailability in rat at 500 mg/kg; format: ADME, organism-based; conditions: in vivo
Rattus norvegicus [12] = species: Rattus norvegicus; assay: Toxicity in Sprague-Dawley rat assessed as behavioral side effects and rapid respiration at concentration >=10 fold of plasma level; format: organism-based; conditions: in vivo
Mus musculus [13] = assay: Inhibition of CP-55940-induced locomotor activity in ICR mouse at 1 mg/kg, sc administered 15 mins before CP-55940 challenge measured after 25 mins; format: functional, organism-based; parameters: dose 1 mg/kg
[14] = Half life in rat at 1 mg/kg, iv and 5 mg/kg, po; format: ADME, organism-based; conditions: in vivo
Rattus norvegicus [15] = assay: Toxicity in po dosed rat after 4 days; format: organism-based; conditions: in vivo, 96 h
Cannabinoid receptor 1 [16] = target: T1, Cannabinoid receptor 1 (Homo sapiens, UniProt P21554); assay: Binding affinity to CB1 receptor
T1 sequence (P21554 whole entry): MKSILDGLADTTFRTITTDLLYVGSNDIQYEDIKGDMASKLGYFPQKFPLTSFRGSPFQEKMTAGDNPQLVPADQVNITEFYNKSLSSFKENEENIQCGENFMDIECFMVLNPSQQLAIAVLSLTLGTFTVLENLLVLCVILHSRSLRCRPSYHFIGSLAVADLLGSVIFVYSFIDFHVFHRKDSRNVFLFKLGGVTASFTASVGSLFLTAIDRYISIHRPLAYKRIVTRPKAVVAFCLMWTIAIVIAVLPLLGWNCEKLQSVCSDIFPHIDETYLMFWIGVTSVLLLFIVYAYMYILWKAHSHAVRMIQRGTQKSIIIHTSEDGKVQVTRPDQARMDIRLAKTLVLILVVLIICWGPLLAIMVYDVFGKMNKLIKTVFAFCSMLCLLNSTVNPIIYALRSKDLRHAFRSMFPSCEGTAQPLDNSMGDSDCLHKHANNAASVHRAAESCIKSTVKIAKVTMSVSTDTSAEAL

Cannabinoid receptor 1 [17] = target: T1, Cannabinoid receptor 1; format: functional, cell-based, CHO-K1
Description: Antagonist activity at human CB1 receptor expressed in CHOK1 cells assessed as inhibition of CP-55940-induced response after 10 mins by GTPgamma[35S] binding assay

Mus musculus [18] = assay: Antiobesity activity in diet-induced obese mouse assessed as reduction in food intake at 3 mg/kg, po for 7 days; format: functional; parameters: scale not given: the % may be the effect or the level left
Rattus norvegicus [19] = assay: Antiobesity activity in fast-induced refeeding Sprague-Dawley rat model assessed as reduction in food intake at 3 mg/kg, po administered 30 mins prior to food intake measured every 10 mins for 2 hrs; format: functional; parameters: scale not given: the % may be the effect or the level left
Mus musculus [20] = assay: Antiobesity activity in diet-induced obese mouse assessed as reduction in weight gain at 3 mg/kg, po for 7 days; format: functional; parameters: scale not given: the % may be the effect or the level left
Mus musculus [21] = assay: Antiobesity activity in diet-induced obese mouse assessed as reduction in food intake at 1 mg/kg, po for 7 days; format: functional; parameters: scale not given: the % may be the effect or the level left
Rattus norvegicus [22] = assay: Antiobesity activity in fast-induced refeeding Sprague-Dawley rat model assessed as reduction in food intake at 1 mg/kg, po administered 30 mins prior to food intake measured every 10 mins for 2 hrs; format: functional; parameters: scale not given: the % may be the effect or the level left
Rattus norvegicus [23] = assay: Inhibition of CP-55940-induced hypothermia in rat at >=1 mg/kg, sc administered 15 mins before CP-55940 challenge measured after 65 mins
Mus musculus [24] = assay: Antiobesity activity in diet-induced obese mouse assessed as reduction in weight gain at 1 mg/kg, po for 7 days; format: functional; parameters: scale not given: the % may be the effect or the level left
Rattus norvegicus [25] = assay: Inhibition of CP-55940-induced locomotor activity in rat at >=1 mg/kg, sc administered 15 mins before CP-55940 challenge measured after 25 mins
Rattus norvegicus [26] = assay: Inhibition of CP-55940-induced analgesia in rat at >=1 mg/kg, sc administered 15 mins before CP-55940 challenge measured after 45 mins by hot plate method
Rattus norvegicus [27] = assay: Inhibition of CP-55940-induced catalepsy in rat at >=1 mg/kg, sc administered 15 mins before CP-55940 challenge measured after 90 mins
[28] = Oral bioavailability in rat up to 50 mg/kg; format: ADME, organism-based; conditions: in vivo

Row | Compound | pKi (Cannabinoid receptor 2) | pKi (Cannabinoid receptor 1 [16]) | pKi (Cannabinoid receptor 1 [17]) | other results
1 | CC(C)CN1CCc2c(nn(-c3ccccc3Cl)c2-c2ccc(Cl)cc2)C1=O | 5.75 | 8.60 | 8.01 | –
2 | O=C1c2nn(-c3ccccc3Cl)c(-c3ccc(Cl)cc3)c2CCN1C1CCCC1 | – | 7.62 | – | –
3 | CC(C)N1CCc2c(nn(-c3ccccc3Cl)c2-c2ccc(Cl)cc2)C1=O | < 5.00 | 8.60 | 8.26 | –
4 | Cc1c(C(=O)NN2CCCCC2)nn(-c2ccc(Cl)cc2Cl)c1-c1ccc(Cl)cc1 [RIMONABANT] | – | – | – | Activity (Mus musculus [18]): 21%; Activity (Rattus norvegicus [19]): 43%; Activity (Mus musculus [20]): 5.2%
5 | CC(C)N1CCOc2c(nn(-c3ccccc3Cl)c2-c2ccc(Cl)cc2)C1=O | < 5.00 | 8.89 | 8.32 | –
6 | CC(F)(F)CN1CCOc2c(nn(-c3ccccc3Cl)c2-c2ccc(Cl)cc2)C1=O | – | – | – | Activity (Mus musculus [21]): 23%; bioavailability [3]: 42%; Activity (Rattus norvegicus [22]): 40%; Activity (Rattus norvegicus [23]): Active; Activity (Mus musculus [24]): 5.9%; Activity (Rattus norvegicus [25]): Active; Vd [10]: 2.6 L/kg; Activity (Rattus norvegicus [26]): Active; Activity (Rattus norvegicus [27]): Active; bioavailability [28]: 51%

Further lines, with some results ahead:

Row | pKi (Cannabinoid receptor 2) | pKi (Cannabinoid receptor 1 [16]) | pKi (Cannabinoid receptor 1 [17]) | Compound | other results
7 | < 5.00 | – | – | CC(F)(F)CN1CCc2c(nn(-c3ccccc3Cl)c2-c2ccc(Cl)cc2)C1=O | solubility [1]: 18.5 ugA/ml; Activity (Rattus norvegicus [2]): Active; bioavailability [3]: 99%; Activity (Mus musculus [4]): Active; Activity (Rattus norvegicus [5]): Active; Activity (Rattus norvegicus [6]): Dose-dependent effect; solubility [7]: 0.2 ugA/ml; Activity (Mus musculus [8]): Active; Activity (Mus musculus [9]): Active; Vd [10]: 2.6 L/kg; bioavailability [11]: 50%; Activity (Rattus norvegicus [12]): Non-toxic; Activity (Mus musculus [13]): Active; half-life [14]: 3.6 h; Activity (Rattus norvegicus [15]): Non-toxic
8 | – | 7.52 | – | CC(F)(F)CN1CCc2c(nn(-c3ccccc3Cl)c2-c2ccc(Cl)cc2)C1 | –
9 | < 5.00 | – | – | Cc1nc2c(-c3ccc(Cl)cc3)n(-c3ccccc3Cl)nc2c(=O)n1CC(F)(F)F | Activity (Rattus norvegicus [12]): Toxic
10 | 5.17 | 8.33 | 7.96 | CC(C)(C)N1CCc2c(nn(-c3ccccc3Cl)c2-c2ccc(Cl)cc2)C1=O | –
11 | 4.63 | 8.33 | 7.60 | CCN1CCc2c(nn(-c3ccccc3Cl)c2-c2ccc(Cl)cc2)C1=O | –
12 | < 5.00 | 8.85 | 9.15 | CCC(F)(F)CN1CCOc2c(nn(-c3ccccc3Cl)c2-c2ccc(Cl)cc2)C1=O | –
13 | < 5.00 | 8.72 | 8.82 | O=C1c2nn(-c3ccccc3Cl)c(-c3ccc(Cl)cc3)c2OCCN1CC(F)(F)F | –
14 | 6.79 | – | – | COC(C)(C)CN1CCc2c(nn(-c3ccccc3Cl)c2-c2ccc(Cl)cc2)C1=O | –
15 | < 5.00 | 8.77 | 8.51 | O=C1c2nn(-c3ccccc3Cl)c(-c3ccc(Cl)cc3)c2CCN1CC(F)(F)F | –
